# Where a name gives a salt, the structure may show the parent alone. Read-outs that look alike come from different tables or passages of the source.
# Key:
# Format in all cases: cell-based
# E. Coli = assay: Minimum Inhibitory Concentration (MIC), E. Coli; details: Escherichia coli, 48 h, Tryptic Soy Broth, 37° C., two days
# Description: (§1) Determination of the Minimum Inhibitory Concentrations (MIC's) for the Compounds Prepared in Part A
# (§2) Solutions of the experimental compounds in dimethyl sulfoxide and an aqueous solution of sodium pyrithione were serially diluted in nutrient broth (Tryptic Soy Broth for bacteria and Sabouraud Dextrose Broth for fungi) in microtiter plates. Equal volumes of a broth supension of bacteria (10^6 CFU/ml) or fungi (10^5 cells or spores/ml) were added to each dilution, and the plates were incubated at 37° C. (bacteria and yeast) or 28° C. (molds). Bacteria, yeast and molds were incubated two, five and seven days respectively before determining the highest inhibitory dilution.
# S. aureus = assay: Minimum Inhibitory Concentration (MIC), S. aureus; details: Staphylococcus aureus, 48 h, Tryptic Soy Broth, 37° C., two days
# Description: as §1, §2
# Candida albicans = assay: Minimum Inhibitory Concentration (MIC), Candida albicans; details: 120 h
# Description: as §1, §2
# Aureobasidium pullulans = assay: Minimum Inhibitory Concentration (MIC), Aureobasidium pullulans
# Description: as §1, §2
# Aspergillins niger = assay: Minimum Inhibitory Concentration (MIC), Aspergillins niger; details: 168 h
# Description: as §1, §2
# Fusarium = assay: Minimum Inhibitory Concentration (MIC), Fusarium; details: 168 h, Sabouraud Dextrose Broth, 28° C., seven days (molds)
# Description: as §1, §2
# [1] = Sabouraud Dextrose Broth, 37° C., five days (yeast), read-out: MIC
# [2] = Sabouraud Dextrose Broth, read-out: MIC
# [3] = Aspergillins niger, Sabouraud Dextrose Broth, 28° C., seven days (molds), read-out: MIC
Structure (SMILES),MIC (E. Coli) [µg/mL],MIC (S. aureus) [µg/mL],MIC (Candida albicans; [1]) [µg/mL],MIC (Aureobasidium pullulans; [2]) [µg/mL],MIC (Aspergillins niger; [3]) [µg/mL],MIC (Fusarium) [µg/mL],MIC (Candida albicans) [µg/mL],MIC (Aureobasidium pullulans) [µg/mL],MIC (Aspergillins niger) [µg/mL]
"On1c(-c2ccccc2)cn(-c2ccccc2)c1=S [Compound 1, 3,5-diphenyl-1-hydroxy-1,2-dihydroimidazole-2-thione]",64,256,2,2,8,16,,,
"COc1ccc(-n2cc(-c3ccccc3)n(O)c2=S)cc1 [Compound 2, 3-(p-methoxyphenyl)-5-phenyl-1-hydroxy-1,2-dihydroimidazole-2-thione]",32,2050,4,8,64,1020,,,
"COc1ccc(-c2cn(-c3ccccc3)c(=S)n2O)cc1 [Compound 3, 5-(p-Methoxyphenyl)-3-phenyl-1-hydroxy-1,2-dihydroimidazole-2-thione]",32,32,2,16,512,512,,,
"[O-][n+]1ccccc1S [Pyrithione, sodium salt, sodium pyrithione, reference compound]",8 to 32,4 to 8,,,,64 to 128,4 to 16,2 to 32,32 to 128

# From patent US5283271A, “3,5-diphenyl or substituted 3,5-diphenyl-1-hydroxy-1,2-dihydroimidazole-2-thiones” (Olin Corporation, priority 1992, dated 1994)
